The values below come from patent US6331528A, “Method for treatment in gene therapy and use of guanine derivative therefor” (priority 2000, dated 2001).

The test system of one series is RERF-LC-MA/LZRNL cell. The series is described as follows: Cellular toxicity in control cell with no insertion of HSV-1 thymidine kinase gene (MTT). The note with it: Homo sapiens, 96 h, control RERF-LC-MA/LZRNL cell without HSV-1 thymidine kinase gene, 4 days. The series is classed as cell-based. On the procedure: (§1) The cellular toxicities of the quanine derivative for use in accordance with the invention (the compound in the free form represented by the structural formula 1), ganciclovir and aciclovir (Comparative Example 1 and 1') against HSV-1 thymidine kinase gene-introduced cells were tested.
(§2) Human lung small cell carcinoma-derived RERF-LC-MA cell was infected with a viral vector prepared by inserting the thymidine kinase gene in a vector derived from Molony mouse leukemia virus. The resulting RERF-LC-MA/LTRNL cell was used. Furthermore, RERF-LC-MA/LZRNL cell with no insertion of any HSV-1 thymidine kinase gene was used as a control cell. The method for preparing these cells and the assay of the cellular toxicities were according to the method reported by Hasegawa et al. [see Hasegawa Y. et al., Am. J. Respir. Cell Mol. Biol. 8 (6) (1993) p. 655-661]. Based on the assay method of cellular toxicity, the cellular toxicities were confirmed by a calorimetric assay method using MTT [3-(4,5-dimethylthiazol-2-yl)-2,5-diphenyl-tetrazolium bromide].
The RERF-LC-MA/LTPNL cell suspension was diluted with a culture medium (E-MEM, 10% FBS) and inoculated at 2×10^3 cells/well in a 96-well plate. Then, the pharmaceutical component (guanine derivative) for use in accordance with the invention, ganciclovir and aciclovir were added at various concentrations to these wells. Subsequently, the cellular toxicities were assayed and confirmed by a calorimetric assay […] and using MTT on day 4.

For series [1], the system named is mouse granulocyte macrophage precursor cell (CFU-GM). The series is described as follows: Effect on the inhibition of the growth of mouse granulocyte macrophage precursor cell (CFU-GM). In kind it is cell-based, mouse C57BL/6N Crj. The following applies: for IC50: CFU-GM, 168 h, mouse femur bone marrow cells, 4×10^4 cells/ml, mouse interleukin-3, 7 days, 37° C., read-out: IC50 (inhibition of CFU-GM colony formation). As for the experimental part:
The effects of the guanine derivative for use in accordance with the invention (the free form of the compound represented by the structural formula 1), ganciclovir and aciclovir (Comparative Examples 2 and 2') on the inhibition of the growth of mouse granulocyte macrophage precursor cell (CFU-GM) were tested. The mouse granulocyte macrophage precursor cell of Okano et al. [see Okano A. et al., Transplantation 48 (1989) p. 495-498]. The effects on the inhibition of the growth of CFU-GM were assayed as follows. From the femur bone marrow of mouse C57BL/6N Crj females of age 10 weeks was prepared bone marrow cell, which was then inoculated at a concentration of 4×10^4 cells/ml in a semi-solid culture medium with addition of various concentrations of the guanine derivative, ganciclovir and aciclovir (Iscove's modified Dulbecco's medium, 0.8% carboxymethyl cellulose, 20% FBS, 200 units/ml mouse interleukin-3). The cell was cultured in 37° C. in 5% CO2 in a wet atmosphere on a 35-mm plate for 7 days. The emerging CFU-GM colonies were counted with a differential microscope.

For series [2] the following is noted: background statement; cited from earlier work.
A further series has as its system RERF-LC-MA/LTRNL cell. The series is described as follows: Cellular toxicity in HSV-1 thymidine kinase gene-introduced cell (MTT). In kind it is cell-based, Human. The following applies: versus ganciclovir and aciclovir. As for the experimental part:
as §1, §2
The RERF-LC-MA/LTPNL cell suspension was diluted with a culture medium (E-MEM, 10% FBS) and inoculated at 2×10^3 cells/well in a 96-well plate. Then, the pharmaceutical component (guanine derivative) for use in accordance with the invention, ganciclovir and aciclovir were added at various concentrations to these wells. […]

Structures are written as SMILES. Values after ≈ are worked out from the molar mass of the structure shown.

Take `Nc1nc2c(ncn2COCCO)c(=O)[nH]1` [aciclovir]: the 50% inhibitory concentration (IC50) (in general, the concentration at which inhibition is half-maximal) with RERF-LC-MA/LZRNL cell is no less than 250 µg/mL; in series [1], 26 µg/mL (≈ 115 µM). In addition, in series [2], the therapeutic effect entry was “extremely poor therapeutic effect”.

As to `Nc1nc2c(ncn2C[C@]2(CO)C[C@H]2CO)c(=O)[nH]1` [guanine derivative, (-)-9-[1'S,2'R-bis(hydroxymethyl)cyclopropan-1'-yl]methylguanine], the “cellular toxicity effect compared with the conventional products” value with RERF-LC-MA/LTRNL cell was “more excellent cellular toxicity effect, compared with the conventional products”. The IC50 in the series with RERF-LC-MA/LZRNL cell was no less than 135 µg/mL; in series [1], no less than 66 µg/mL. Besides, the “bone marrow toxicity compared with ganciclovir and aciclovir” value in series [1] (inferred from CFU-GM colony IC50) was “possibly weaker than those of ganciclovir and aciclovir”.

Turning to `Nc1nc(O)c2ncn(COC(CO)CO)c2n1` [ganciclovir], the IC50 was no less than 201 µg/mL in the series on RERF-LC-MA/LZRNL cell and 18 µg/mL (≈ 70.5 µM) in series [1].
